In US7670784B2, “β-Benzyloxyaspartic acid derivatives having two substituents on their benzene rings” (Suntory Holdings Limited, priority 2004, dated 2010):

What was measured:
human EAAT3 = biological target: T1, human EAAT3 (Homo sapiens, UniProt P43005); assay: [14C]glutamate uptake inhibition in human EAAT3 constitutively expressed in MDCK cells; format: cell-based; details: 1 μM L-[14C]glutamate, 12 minutes incubation
T1 construct: expressed in transfected cells; host or cells: MDCK (Madin-Darby Canine Kidney) cells
T1 sequence (P43005 1-524): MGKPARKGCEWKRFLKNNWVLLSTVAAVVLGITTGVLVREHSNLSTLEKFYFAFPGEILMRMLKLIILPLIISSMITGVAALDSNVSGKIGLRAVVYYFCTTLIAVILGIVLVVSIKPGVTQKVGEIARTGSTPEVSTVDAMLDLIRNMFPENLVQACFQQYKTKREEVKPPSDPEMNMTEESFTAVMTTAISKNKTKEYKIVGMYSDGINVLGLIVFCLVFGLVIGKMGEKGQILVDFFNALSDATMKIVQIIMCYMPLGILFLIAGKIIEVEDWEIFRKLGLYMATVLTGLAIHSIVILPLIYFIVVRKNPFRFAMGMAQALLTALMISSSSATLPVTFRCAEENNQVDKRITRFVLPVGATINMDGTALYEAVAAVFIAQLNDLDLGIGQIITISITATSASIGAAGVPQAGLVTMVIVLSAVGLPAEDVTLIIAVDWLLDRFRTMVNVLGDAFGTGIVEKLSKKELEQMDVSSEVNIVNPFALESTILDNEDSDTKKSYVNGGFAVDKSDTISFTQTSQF
Description: (§1) According to the known method (Shimamoto, K. et al., Mol. Pharmacol. 53, 195-201, 1998; Bioorg. Med. Chem. Lett. 10, 2407-2410, 2000), the inhibitory effect against [^14C]glutamate uptake was measured in human EAAT2 or EAAT3 constitutively expressed in MDCK (Madin-Darby Canine Kidney) cells. Glutamate uptake activity was determined as follows: 1 μM L-[^14C]glutamate and a sample at a given concentration were added and incubated for 12 minutes, followed by solubilizing the cells to measure incorporated radioactivity with a liquid scintillator. The amount of uptake was expressed as a percentage, assuming that uptake in the absence of a test compound (buffer alone) was set to 100% and uptake in a sodium-free solution was set to 0%.

human EAAT2 = biological target: T2, human EAAT2 (Homo sapiens, UniProt P43004); assay: [14C]glutamate uptake inhibition in human EAAT2 constitutively expressed in MDCK cells; format: cell-based; details: 1 μM L-[14C]glutamate, 12 minutes incubation
T2 construct: expressed in transfected cells; host or cells: MDCK (Madin-Darby Canine Kidney) cells
Description: as §1

glutamate transporters = details: Shimamoto et al., Mol. Pharmacol. 65, 2004; cited from earlier work

T2 sequence (P43004 whole entry): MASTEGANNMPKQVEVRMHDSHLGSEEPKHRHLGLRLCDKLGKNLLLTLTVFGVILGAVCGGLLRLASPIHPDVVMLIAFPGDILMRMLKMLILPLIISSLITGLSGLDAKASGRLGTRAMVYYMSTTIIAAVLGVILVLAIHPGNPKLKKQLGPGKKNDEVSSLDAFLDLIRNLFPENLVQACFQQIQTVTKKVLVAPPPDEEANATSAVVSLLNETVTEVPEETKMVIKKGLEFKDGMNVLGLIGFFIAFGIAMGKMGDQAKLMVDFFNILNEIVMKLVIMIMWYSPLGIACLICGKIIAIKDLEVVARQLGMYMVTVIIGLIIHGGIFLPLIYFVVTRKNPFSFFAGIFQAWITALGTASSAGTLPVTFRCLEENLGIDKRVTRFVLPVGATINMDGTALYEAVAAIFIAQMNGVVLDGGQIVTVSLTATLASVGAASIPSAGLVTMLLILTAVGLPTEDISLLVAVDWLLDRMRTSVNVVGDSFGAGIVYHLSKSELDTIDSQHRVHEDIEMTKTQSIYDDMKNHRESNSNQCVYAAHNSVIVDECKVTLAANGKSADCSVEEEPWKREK

Structure (SMILES) | IC50 (human EAAT3) [nM] | IC50 (human EAAT2) [nM] | IC50 value for uptake inhibitory activity (glutamate transporters)
NCCOCCOCCOCCOCC(=O)NCCCCCC(=O)NCCCCCC(=O)Nc1cc(CO[C@H](C(=O)O)[C@H](N)C(=O)O)cc(NC(=O)c2ccc(C(F)(F)F)cc2)c1 [Compound 10, (2S,3S)-3-(3-(6-(6-(2-(2-(2-(2-(2-aminoethoxy)ethoxy)ethoxy)ethoxy)acetamido)hexanamido)hexanamido)-5-(4-(trifluoromethyl)benzamido)benzyloxy)aspartic acid] | 805 | 23 | 
N[C@H](C(=O)O)[C@H](OCc1cc(NC(=O)c2ccc(C(F)(F)F)cc2)cc(NC(=O)c2ccc(C(F)(F)F)cc2)c1)C(=O)O [Compound 11, (2S,3S)-3-{3,5-bis[4-(trifluoromethyl)benzamido]benzyloxy}aspartic acid] | 0.46 | 1.3 | 
CCC(=O)Nc1cc(CO[C@H](C(=O)O)[C@H](N)C(=O)O)cc(NC(=O)c2ccc(C(F)(F)F)cc2)c1 [Compound 14, (2S,3S)-3-(3-propionylamido-5-[4-(trifluoromethyl)benzamido]benzyloxy)aspartic acid] | 112 | 4.7 | 
N[C@H](C(=O)O)[C@H](OCc1ccccc1)C(=O)O [L-TBOA, L-threo-β-benzyloxyaspartic acid, reference compound] | 1300 | 1300 | 
N[C@H](C(=O)O)[C@H](OCc1cccc(NC(=O)c2ccc(C(F)(F)F)cc2)c1)C(=O)O [TFB-TBOA] |  |  | in the order of nM
